The values below come from patent US9643967B2, “Pyrrolo[3,2-c]pyridine derivatives as TLR inhibitors” (TAKEDA PHARMACEUTICAL COMPANY LIMITED, priority 2013, dated 2017).

For this test, the target named is T1, hTLR9 (Homo sapiens, UniProt Q9NR96).
T1 construct: expressed in transfected cells; host or cells: HEK-Blue-hTLR9 cells (HEK293)
T1 sequence (Q9NR96 26-1032): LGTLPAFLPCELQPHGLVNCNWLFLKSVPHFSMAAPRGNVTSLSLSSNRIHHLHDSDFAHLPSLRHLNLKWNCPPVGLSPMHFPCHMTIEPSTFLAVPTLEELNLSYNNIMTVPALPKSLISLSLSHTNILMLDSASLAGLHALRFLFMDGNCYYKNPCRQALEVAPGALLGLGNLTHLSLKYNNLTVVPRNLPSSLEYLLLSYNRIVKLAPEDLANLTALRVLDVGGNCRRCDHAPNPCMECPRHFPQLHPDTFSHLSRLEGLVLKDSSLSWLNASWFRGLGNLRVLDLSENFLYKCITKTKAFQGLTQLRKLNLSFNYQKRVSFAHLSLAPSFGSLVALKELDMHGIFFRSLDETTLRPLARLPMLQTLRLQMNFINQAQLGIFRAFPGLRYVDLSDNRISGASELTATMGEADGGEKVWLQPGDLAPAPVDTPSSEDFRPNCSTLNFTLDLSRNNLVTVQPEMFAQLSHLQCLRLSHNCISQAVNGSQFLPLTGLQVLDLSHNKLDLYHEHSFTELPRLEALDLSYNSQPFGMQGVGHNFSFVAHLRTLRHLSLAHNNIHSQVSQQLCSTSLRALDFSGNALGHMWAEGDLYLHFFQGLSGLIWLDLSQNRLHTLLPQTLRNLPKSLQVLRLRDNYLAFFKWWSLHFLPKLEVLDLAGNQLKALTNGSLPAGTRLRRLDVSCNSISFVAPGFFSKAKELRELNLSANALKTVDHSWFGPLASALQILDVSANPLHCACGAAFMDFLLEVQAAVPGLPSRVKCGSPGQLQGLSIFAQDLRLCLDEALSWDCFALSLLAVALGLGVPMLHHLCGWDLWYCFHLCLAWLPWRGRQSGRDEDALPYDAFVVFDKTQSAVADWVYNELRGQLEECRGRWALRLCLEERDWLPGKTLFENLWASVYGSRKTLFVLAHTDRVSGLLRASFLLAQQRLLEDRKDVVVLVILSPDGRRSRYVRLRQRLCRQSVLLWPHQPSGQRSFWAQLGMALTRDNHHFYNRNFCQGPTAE
Nature of the test: hTLR9 antagonism (SEAP inhibition assay) in HEK-Blue-hTLR9 (HEK293) cells, ODN-2006 stimulated. The settings on record: HEK-Blue hTLR9, 1 μM; SEAP, HEK-Blue-hTLR9 cells; read-out: hTLR9 inhibitory activity (% at 1 μM). Format: cell-based. How it is done:
hTLR9 Antagonism (SEAP Inhibition Assay) in HEK293 Cell Lines
The SEAP reporter gene in HEK-Blue™-hTLR9 cells is placed under the control of the IFN-b minimal promoter fused to five NF-kB and AP-1 binding sites. The stimulation with a TLR9 ligand (ODN-2006) activates NF-kB and AP-1 which induces the production of SEAP. Levels of SEAP are determined with QUANTI-Blue™ detection medium that turns purple/blue in the presence of alkaline phosphatase. Decrease in the levels of SEAP production as indicated by reduction in absorbance at 650 nm is directly co-related with the TLR9 inhibitory activity of the antagonist (NCE).
HEK-Blue™-hTLR9 cells were maintained in DMEM with 10% FBS, 1% Penicillin/Streptomycin/Amphotericin (complete growth medium) and 0.2% Normocin. For the assay, cells were dissociated by washing in 1×PBS and re-suspended in complete DMEM. Cells were seeded at a density of 20000 cells per well; (40 μl per well) in a 384 well assay plate.
5 μl of 10× antagonist (NCE) was added to the cells in triplicates for each concentration. The plate was incubated for half an hour at 37° C. with 5% CO2. 5 μl of agonist (ODN-2006) was added and the plate was incubated overnight for 18 hours at 37° C. with 5% CO2. 5 μl of supernatant was transferred to a 384 well reading plate and to this 45 μl of Quanti-Blue™ detection reagent was added. The plate was then incubated for an hour at 37° C. SEAP activity in the supernatant was indicated by change in the pink color of Quanti-Blue™ detection reagent to purple/blue and the absorbance was read at 650 nm in the end point mode.

Each structure is given as a SMILES string.

As for `c1cc2[nH]c(CN3CCOCC3)cc2c(-c2ccc(N3CCN(Cc4cocn4)CC3)cc2)n1` [Example A76, 4-[[4-[4-[4-(oxazol-4-ylmethyl)piperazin-1-yl]phenyl]-1H-pyrrolo[3,2-c]pyridin-2-yl]methyl]morpholine], the inhibition at 1 µM amounted to 81.2%. Then `Cc1cc2[nH]c(CN3CCC(F)CC3)cc2c(-c2ccc(N3CCN(C(C)C)CC3)cc2)n1` [Example A27, 2-[(4-fluoro-1-piperidyl)methyl]-4-[4-(4-isopropylpiperazin-1-yl)phenyl]-6-methyl-1H-pyrrolo[3,2-c]pyridine], with 96.4%. The figure for `FC(F)(F)CN1CCN(c2ccc(-c3nccc4[nH]c(CN5CCOCC5)cc34)cc2)CC1` [Example A75, 4-[[4-[4-[4-(2,2,2,2-trifluoroethyl)piperazin-1-yl]phenyl]-1H-pyrrolo[3,2-c]pyridin-2-yl]methyl]morpholine] is 34.9%; for `c1cc2[nH]c(CN3CCOCC3)cc2c(-c2ccc(N3CCOCC3)cc2)n1` [Example A83, 4-[4-[2-(morpholinomethyl)-1H-pyrrolo[3,2-c]pyridin-4-yl]phenyl]morpholine] it is 29.5%. The figure for `CC(C)N1CCN(c2ccc(-c3nccc4[nH]c(CN5CCOCC5)c(Cl)c34)cc2)CC1` [Example A71, 4-[[3-chloro-4-[4-(4-isopropylpiperazin-1-yl)phenyl]-1H-pyrrolo[3,2-c]pyridin-2-yl]methyl]morpholine] is 86.1%. Take `COC(=O)[C@H]1CCCN1Cc1cc2c(-c3ccc(N4CCN(C(C)C)CC4)cc3)nccc2[nH]1` [Example A73, methyl (2R)-1-[[4-[4-(4-isopropyl-piperazin-1-yl)phenyl]-1H-pyrrolo[3,2-c]pyridin-2-yl]methyl]pyrrolidine-2-carboxylate]: the inhibition at 1 µM turned out to be 72%.

Regarding `CN1CCN(c2ccc(-c3nccc4[nH]c(CN5CCOCC5)cc34)cn2)CC1` [Example A59, 4-[[4-[6-(4-methylpiperazin-1-yl)-3-pyridyl]-1H-pyrrolo[3,2-c]pyridin-2-yl]methyl]morpholine], the inhibition at 1 µM was found to be 94.7%. With `c1cc(-c2nccc3[nH]c(CN4CCOCC4)cc23)cc(N2CCNCC2)c1` [Example A46, 4-[[4-(3-(piperazin-1-yl)phenyl)-1H-pyrrolo[3,2-c]pyridin-2-yl]methyl] morpholine], the inhibition at 1 µM stood at 83.5%.

Regarding `Cc1cc2[nH]c(CCCN3CCOCC3)cc2c(-c2ccc(N3CCN(C)CC3)cc2)n1` [Example C4, 4-[3-[6-methyl-4-[4-(4-methylpiperazin-1-yl)phenyl]-1H-pyrrolo[3,2-c]pyridin-2-yl]propyl]morpholine], the inhibition at 1 µM is 98.7%. The figure for `CC(C)N1CCN(c2ccc(-c3nccc4[nH]c(CN5CCC(F)(F)C5)cc34)cc2)CC1` [Example A18, 2-[(3,3-difluoropyrrolidin-1-yl)methyl]-4-[4-(4-isopropylpiperazin-1-yl)phenyl]-1H-pyrrolo[3,2-c]pyridine] is 100%. The figure for `CC(C)N1CCN(C(=O)c2ccc(-c3nccc4[nH]c(CN5CCOCC5)cc34)cc2)CC1` [Example A19, (4-isopropylpiperazin-1-yl)-[4-[2-(morpholinomethyl)-1H-pyrrolo[3,2-c]pyridin-4-yl]phenyl] methanone] is 90%. The figure for `CC(C)N1CCN(c2ncc(-c3nccc4[nH]c(CN5CCOCC5)cc34)s2)CC1` [Example A58, 4-[[4-[2-(4-isopropylpiperazin-1-yl)thiazol-5-yl]-1H-pyrrolo[3,2-c]pyridin-2-yl]methyl]morpholine] is 98%.

On to `CC(C)N1CCN(c2ccc(-c3nc(C(F)(F)F)cc4[nH]c(CN5CCOCC5)cc34)cc2)CC1` [Example A32, 4-[[4-[4-(4-isopropylpiperazin-1-yl)phenyl]-6-(trifluoromethyl)-1H-pyrrolo[3,2-c]pyridin-2-yl]methyl] morpholine], for which the inhibition at 1 µM was determined as 49%. `OC1CCN(c2ccc(-c3nccc4[nH]c(CN5CCOCC5)cc34)cc2)CC1` [Example A69, 1-[4-[2-(morpholinomethyl)-1H-pyrrolo[3,2-c]pyridin-4-yl]phenyl]piperidin-4-ol]: the inhibition at 1 µM stood at 73.5%. The figure for `C1=C(c2ccc(-c3nccc4[nH]c(CN5CCOCC5)cc34)cc2)CCN(C2COC2)C1` [Example A11, 4-[[4-[4-[1-(oxetan-3-yl)-3,6-dihydro-2H-pyridin-4-yl]phenyl]-1H-pyrrolo[3,2-c]pyridin-2-yl]methyl] morpholine] is 77.5%. The figure for `CN1CCN(c2ccc(-c3nc(C(F)(F)F)cc4[nH]c(CN5CCOCC5)cc34)cc2)CC1` [Example A31, 4-[[4-[4-(4-methylpiperazin-1-yl)phenyl]-6-(trifluoromethyl)-1H-pyrrolo[3,2-c]pyridin-2-yl]methyl] morpholine] is 66%. The figure for `O=C(O)C1CCN(c2ccc(-c3nccc4[nH]c(CN5CCOCC5)cc34)cc2)CC1` [Example A68, 1-[4-[2-(morpholinomethyl)-1H-pyrrolo[3,2-c]pyridin-4-yl]phenyl]piperidine-4-carboxylic acid] is 21%; for `c1cc2[nH]c(CN3CCOCC3)cc2c(-c2ccc(C3CCN(C4COC4)CC3)cc2)n1` [Example A65, 4-[[4-[4-[1-(oxetan-3-yl)-4-piperidyl]phenyl]-1H-pyrrolo[3,2-c]pyridin-2-yl]methyl] morpholine] it is 70.5%. `COC(=O)C1CCN(c2ccc(-c3nccc4[nH]c(CN5CCOCC5)cc34)cc2)CC1` [Example A67, methyl 1-[4-[2-(morpholinomethyl)-1H-pyrrolo[3,2-c]pyridin-4-yl]phenyl]piperidine-4-carboxylate]: the inhibition at 1 µM is 27.5%. The figure for `c1cc2[nH]c(CN3CCOCC3)cc2c(-c2cnn(C3CCNCC3)c2)n1` [Example A45, 4-[[4-[1-(4-piperidyl)pyrazol-4-yl]-1H-pyrrolo [3,2-c]pyridin-2-yl]methyl] morpholine] is 76.1%. With `CC(C)N1CCN(C2CCC(c3nccc4[nH]c(CN5CCOCC5)cc34)CC2)CC1` (stereo not drawn) [Example A79, 4-[[4-[4-(4-isopropylpiperazin-1-yl)cyclohexyl]-1H-pyrrolo[3,2-c]pyridin-2-yl]methyl]morpholine], the inhibition at 1 µM amounted to 100%. The figure for `CN1CCN(C(=O)c2ccc(-c3nccc4[nH]c(CN5CCOCC5)cc34)cc2)CC1` [Example A22, (4-methylpiperazin-1-yl)-[4-[2-(morpholinomethyl)-1H-pyrrolo[3,2-c]pyridin-4-yl]phenyl] methanone] is 62%; for `Cc1nc(-c2ccc(N3CCN(C(C)C)CC3)cc2)c2cc(CCN3CCCCC3)[nH]c2c1C` [Example B9, 4-[4-(4-isopropylpiperazin-1-yl)phenyl]-6,7-dimethyl-2-[2-(1-piperidyl)ethyl]-1H-pyrrolo[3,2-c]pyridine] it is 95.2%; for `CC1(O)CCN(c2ccc(-c3nccc4[nH]c(CN5CCOCC5)cc34)cc2)CC1` [Example A10, 4-methyl-1-[4-[2-(morpholinomethyl)-1H-pyrrolo[3,2-c]pyridin-4-yl]phenyl] piperidin-4-ol] it is 29%.
